In patent publication US20240208970A1, “SUBSTITUTED HYDANTOIN COMPOUNDS, METHODS FOR PREPARATION THEREOF AND USE THEREOF IN THE TREATMENT AND/OR PREVENTION OF A CORONA VIRUS DISEASE” (priority 2021, published 2024):

Molecular target: SARS-CoV-2 M^pro protease (Severe acute respiratory syndrome coronavirus 2 (2019-nCoV) (SARS-CoV-2), UniProt P0DTD1)
Test: biochemical
Type: biochemical
Conditions: for IC50: M^pro 75 nM, substrate 10 μM

Row | Structure (SMILES) | IC50 (Tables 5B-5E) | other results
1 | C=CCN1C(=O)N(c2cncc3ccccc23)C(=O)C12CC(C1CCC1)C2 (stereo not drawn) [Compound 74, 5-allyl-2-cyclobutyl-7-(isoquinolin-4-yl)-5,7-diazaspiro[3.4]octane-6,8-dione] | 1510 nM | –
2 | O=C1NC2(CC(c3ccsc3Cl)C2)C(=O)N1c1cncc2ccccc12 (single isomer, unassigned) [Compound 40, 2-(2-chlorothiophen-3-yl)-7-(isoquinolin-4-yl)-5,7-diazaspiro[3.4]octane-6,8-dione] | 304 nM | –
3 | O=C1NC2(CC(c3sccc3Br)C2)C(=O)N1c1cncc2ccccc12 (single isomer, unassigned) [Compound 45, 2-(3-bromothiophen-2-yl)-7-(isoquinolin-4-yl)-5,7-diazaspiro[3.4]octane-6,8-dione] | 57 nM | –
4 | O=C1NC2(CC(c3cccc(Cl)c3)C2)C(=O)N1c1cncc2ccccc12 (stereo not drawn) [Compound 25, 2-(3-chlorophenyl)-7-(isoquinolin-4-yl)-5,7-diazaspiro[3.4]octane-6,8-dione] | 931 nM | –
5 | O=C(CN1C(=O)N(c2cncc3ccccc23)C(=O)C12CC(C1CCC1)C2)c1ccccn1 (stereo not drawn) [Compound 73, 2-cyclobutyl-7-(isoquinolin-4-yl)-5-(2-oxo-2-(pyridin-2-yl)ethyl)-5,7-diazaspiro[3.4]octane-6,8-dione] | 1440 nM | –
6 | O=C1NC2(CC(c3c(Cl)cccc3Cl)C2)C(=O)N1c1cncc2ccccc12 (single isomer, unassigned) [Compound 29, 2-(2,6-dichlorophenyl)-7-(isoquinolin-4-yl)-5,7-diazaspiro[3.4]octane-6,8-dione] | 165 nM | –
7 | O=C1NC2(CC(c3cc(F)c(F)cc3Cl)C2)C(=O)N1c1cncc2ccccc12 (stereo not drawn) [Compound 87, 2-(2-chloro-4,5-difluorophenyl)-7-(isoquinolin-4-yl)-5,7-diazaspiro[3.4]octane-6,8-dione] | 115 nM | –
8 | CCN1C(=O)N(c2cncc3ccccc23)C(=O)C12CC(C1CCC1)C2 (stereo not drawn) [Compound 75, 2-cyclobutyl-5-ethyl-7-(isoquinolin-4-yl)-5,7-diazaspiro[3.4]octane-6,8-dione] | 2000 nM | –
9 | CN1C(=O)N(c2cncc3ccccc23)C(=O)C12CC(C1CCC1)C2 (stereo not drawn) [Compound 69, 2-cyclobutyl-7-(isoquinolin-4-yl)-5-methyl-5,7-diazaspiro[3.4]octane-6,8-dione] | 562 nM | –
10 | COc1ccccc1C1CC2(C1)NC(=O)N(c1cncc3ccccc13)C2=O (stereo not drawn) [Compound 20, 7-(isoquinolin-4-yl)-2-(2-methoxyphenyl)-5,7-diazaspiro[3.4]octane-6,8-dione] | 477 nM | –
11 | NC(=O)CN1C(=O)N(c2cncc3ccccc23)C(=O)C12CC(C1CCC1)C2 (stereo not drawn) [Compound 70, 2-(2-cyclobutyl-7-(isoquinolin-4-yl)-6,8-dioxo-5,7-diazaspiro[3.4]octan-5-yl)acetamide] | 944 nM | –
12 | O=C1NC2(CC(c3ccccc3Cl)C2)C(=O)N1c1cncc2cc(F)ccc12 (stereo not drawn) [Compound 55, 2-(2-chlorophenyl)-7-(7-fluoroisoquinolin-4-yl)-5,7-diazaspiro[3.4]octane-6,8-dione] | 187 nM | –
13 | O=C1NC2(CC(c3cn(Cc4ccccc4)nn3)C2)C(=O)N1c1cncc2ccccc12 (stereo not drawn) [Compound 47, 2-(1-benzyl-1H-1,2,3-triazol-4-yl)-7-(isoquinolin-4-yl)-5,7-diazaspiro[3.4]octane-6,8-dione] | 10800 nM | –
14 | CC1(c2ccccc2)CC2(C1)NC(=O)N(c1cncc3ccccc13)C2=O (single isomer, unassigned) [Compound 38, 7-(isoquinolin-4-yl)-2-methyl-2-phenyl-5,7-diazaspiro[3.4]octane-6,8-dione] | 71 nM | –
15 | O=C1NC2(CC(c3c(F)cccc3Cl)C2)C(=O)N1c1cncc2ccccc12 (single isomer, unassigned) [Compound 37, 2-(2-chloro-6-fluorophenyl)-7-(isoquinolin-4-yl)-5,7-diazaspiro[3.4]octane-6,8-dione] | 64 nM | –
16 | CN1C(=O)N(c2cncc3ccccc23)C(=O)C12CC(c1ccccc1Cl)C2 (stereo not drawn) [Compound 68, 2-(2-chlorophenyl)-7-(isoquinolin-4-yl)-5-methyl-5,7-diazaspiro[3.4]octane-6,8-dione] | 453 nM | –
17 | Cc1ccc2cncc(N3C(=O)NC4(CC(C5CCC5)C4)C3=O)c2c1 (stereo not drawn) [Compound 58, 2-cyclobutyl-7-(6-methylisoquinolin-4-yl)-5,7-diazaspiro[3.4]octane-6,8-dione] | 361 nM | –
18 | O=C1NC2(CC(c3ccccc3Cl)C2)C(=O)N1c1cccnn1 (stereo not drawn) [Compound 81, 2-(2-chlorophenyl)-7-(pyridazin-3-yl)-5,7-diazaspiro[3.4]octane-6,8-dione] | 419 nM | –
19 | O=C1NC2(CC(C3CCC3)C2)C(=O)N1c1cncc(Br)c1 (stereo not drawn) [Compound 14, 7-(5-bromopyridin-3-yl)-2-cyclobutyl-5,7-diazaspiro[3.4]octane-6,8-dione] | – | IC50 (Table 5A): 6000 nM
20 | CN(C)c1ccncc1N1C(=O)NC2(CC(c3ccccc3Cl)C2)C1=O (stereo not drawn) [Compound 93, 2-(2-chlorophenyl)-7-(4-(dimethylamino)pyridin-3-yl)-5,7-diazaspiro[3.4]octane-6,8-dione] | 157 nM | –

Row | Structure (SMILES) | IC50 (Tables 5B-5E) | other results
21 | O=C1NC2(CC(c3ccccc3Cl)C2)C(=O)N1c1cncc2[nH]c(=O)[nH]c12 (stereo not drawn) [Compound 98, 2-(2-chlorophenyl)-7-(2-oxo-2,3-dihydro-1H-imidazo[4,5-c]pyridin-7-yl)-5,7-diazaspiro[3.4]octane-6,8-dione] | 1380 nM | –
22 | O=C1NC2(CC(c3cccc(F)c3Cl)C2)C(=O)N1c1cncc2ccccc12 (single isomer, unassigned) [Compound 30, 2-(2-chloro-3-fluorophenyl)-7-(isoquinolin-4-yl)-5,7-diazaspiro[3.4]octane-6,8-dione] | 372 nM | –
23 | CC1(c2ccccc2Cl)CC2(C1)NC(=O)N(c1cncc3ccccc13)C2=O (stereo not drawn) [Compound 96, 2-(2-chlorophenyl)-7-(isoquinolin-4-yl)-2-methyl-5,7-diazaspiro[3.4]octane-6,8-dione] | 408 nM | –
24 | CC(C)(C)C1CC2(C1)NC(=O)N(c1cncc(F)c1)C2=O (stereo not drawn) [Compound 12, 2-tert-butyl-7-(5-fluoropyridin-3-yl)-5,7-diazaspiro[3.4]octane-6,8-dione] | – | IC50 (Table 5A): 5500 nM
25 | O=C1NC2(CC(c3ccccc3F)C2)C(=O)N1c1cncc2ccccc12 (stereo not drawn) [Compound 19, 2-(2-fluorophenyl)-7-(isoquinolin-4-yl)-5,7-diazaspiro[3.4]octane-6,8-dione] | 326 nM | –
26 | CC(=O)N1C(=O)N(c2cncc3ccccc23)C(=O)C12CC(C1CCC1)C2 (stereo not drawn) [Compound 79, 5-acetyl-2-cyclobutyl-7-(isoquinolin-4-yl)-5,7-diazaspiro[3.4]octane-6,8-dione] | 3080 nM | –
27 | O=C1NC2(CC(OCc3ccccc3)C2)C(=O)N1c1cncc2ccccc12 (stereo not drawn) [Compound 48, 2-(benzyloxy)-7-(isoquinolin-4-yl)-5,7-diazaspiro[3.4]octane-6,8-dione] | 2580 nM | –
28 | O=C1NC2(CC(c3ccccc3Cl)C2)C(=O)N1c1cc(Br)cnc1F (stereo not drawn) [Compound 85, 7-(5-bromo-2-fluoropyridin-3-yl)-2-(2-chlorophenyl)-5,7-diazaspiro[3.4]octane-6,8-dione] | 323 nM | –
29 | O=C1NC2(CC(c3ccc(F)cc3)C2)C(=O)N1c1cncc2ccccc12 (stereo not drawn) [Compound 27, 2-(4-fluorophenyl)-7-(isoquinolin-4-yl)-5,7-diazaspiro[3.4]octane-6,8-dione] | 441 nM | –
30 | O=C1N(c2cncc3ccccc23)C(=O)C2(CC(C3CCC3)C2)N1Cc1cc(Cl)nc(Cl)c1 (stereo not drawn) [Compound 71, 2-cyclobutyl-5-((2,6-dichloropyridin-4-yl)methyl)-7-(isoquinolin-4-yl)-5,7-diazaspiro[3.4]octane-6,8-dione] | 1070 nM | –
31 | N#CCN1C(=O)N(c2cncc3ccccc23)C(=O)C12CC(C1CCC1)C2 (stereo not drawn) [Compound 72, 2-(2-cyclobutyl-7-(isoquinolin-4-yl)-6,8-dioxo-5,7-diazaspiro[3.4]octan-5-yl)acetonitrile] | 1360 nM | –
32 | O=C1NC2(CC(c3ccccc3Br)C2)C(=O)N1c1cncc2ccccc12 (single isomer, unassigned) [Compound 16, 2-(2-bromophenyl)-7-(isoquinolin-4-yl)-5,7-diazaspiro[3.4]octane-6,8-dione] | 127 nM | –
33 | CC1(c2ccccc2)CC2(C1)NC(=O)N(c1cncc3ccccc13)C2=O (single isomer, unassigned) [Compound 39, 7-(isoquinolin-4-yl)-2-methyl-2-phenyl-5,7-diazaspiro[3.4]octane-6,8-dione] | 926 nM | –
34 | O=C1CCCN1CN1C(=O)N(c2cncc3ccccc23)C(=O)C12CC(C1CCC1)C2 (stereo not drawn) [Compound 78, 2-cyclobutyl-7-(isoquinolin-4-yl)-5-((2-oxopyrrolidin-1-yl)methyl)-5,7-diazaspiro[3.4]octane-6,8-dione] | 3060 nM | –
35 | Cc1ccnc(F)c1N1C(=O)NC2(CC(c3ccccc3Cl)C2)C1=O (stereo not drawn) [Compound 90, 2-(2-chlorophenyl)-7-(2-fluoro-4-methylpyridin-3-yl)-5,7-diazaspiro[3.4]octane-6,8-dione] | 223 nM | –
36 | Cc1ccncc1N1C(=O)NC2(CC(c3ccccc3)C2)C1=O (stereo not drawn) [Compound 11, 7-(4-methylpyridin-3-yl)-2-phenyl-5,7-diazaspiro[3.4]octane-6,8-dione] | – | IC50 (Table 5A): 2300 nM
37 | O=C1NC2(CC(c3c(F)cccc3Cl)C2)C(=O)N1c1cncc2ccccc12 (single isomer, unassigned) [Compound 36, 2-(2-chloro-6-fluorophenyl)-7-(isoquinolin-4-yl)-5,7-diazaspiro[3.4]octane-6,8-dione] | 205 nM | –
38 | O=C1NC2(CC(c3ccc(F)cc3Cl)C2)C(=O)N1c1cncc2ccccc12 (stereo not drawn) [Compound 33, 2-(2-chloro-4-fluorophenyl)-7-(isoquinolin-4-yl)-5,7-diazaspiro[3.4]octane-6,8-dione] | 99 nM | –
39 | O=C1NC2(CC(c3ccccc3Cl)C2)C(=O)N1c1cnccc1Oc1ccccc1 (stereo not drawn) [Compound 82, 2-(2-chlorophenyl)-7-(4-phenoxypyridin-3-yl)-5,7-diazaspiro[3.4]octane-6,8-dione] | – | activity at […] (percent of control activity at 2500 nM, read-out: % activity at 2500 nM): 55%
